Assay results: paper PMC3701698, “Pathway-based Screening Strategy for Multitarget Inhibitors of Diverse Proteins in Metabolic Pathways” (PLoS Computational Biology, 2013)
Read-outs that look alike come from different tables or passages of the source.

Experiments:
shikimate kinase (SK) = shikimate kinase (SK) (Helicobacter pylori, UniProt P56073); test: Single enzyme inhibition assay, SK activity (ADP release coupled to NADH oxidation); type: biochemical; settings: for IC50: 1.6 mM shikimate, 2 mM ATP, 25°C, pH 8.0; for inhibition at 100 µM: Table S4, read-out: SK IC50 (μM), dash = inhibition percentage
Sequence of shikimate kinase (SK) (P56073 whole entry): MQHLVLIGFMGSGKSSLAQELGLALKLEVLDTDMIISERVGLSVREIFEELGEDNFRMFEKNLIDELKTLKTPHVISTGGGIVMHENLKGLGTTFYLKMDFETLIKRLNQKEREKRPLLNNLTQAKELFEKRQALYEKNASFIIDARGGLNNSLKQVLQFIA
Experimental: (§1) The SK activity was measured by coupling the release of ADP from the SK-catalyzed reaction to the oxidation of NADH using pyruvate kinase (EC 2.7.1.40) and lactate dehydrogenase (EC 1.1.1.27) as coupling enzymes. SDH activity was determined by monitoring the formation of NADPH. The initial rate of the reaction was measured by the increase in absorbance at A340 (ε = 6,200 M^−1 cm^−1) in the present of shikimate. The assay was performed at 25°C in a mixture of 100 mM Tris-HCl buffer, pH 8.0.
(§2) Both SK and SDH were used in a final enzyme concentration of 100 nM. For determination of IC50 for each inhibitor, the assay was initiated by the addition of shikimate (1.6 mM) after incubation in a buffer containing cofactor (2 mM ATP for SK or 2 mM NADP for SDH), enzyme, and inhibitor (dissolved in 5% dimethyl sulfoxide). All assays were conducted in a 96-well microplate and analyzed with a spectrophotometer (FLUOstar OPTIMA, BMG LABTECH). A dose-response curve was fitted using the non-linear regression function of GraphPad Prism®.

[1] = target: T1, 3-dehydroquinate synthase (Helicobacter pylori, UniProt P56081); test: 3-dehydroquinate synthase inhibition assay (NADH quantification); type: biochemical; settings: for inhibition of 3-dehydroquinate synthase: 1 mM DAHP, 0.5 mM NAD+
T1 sequence (P56081 1-343): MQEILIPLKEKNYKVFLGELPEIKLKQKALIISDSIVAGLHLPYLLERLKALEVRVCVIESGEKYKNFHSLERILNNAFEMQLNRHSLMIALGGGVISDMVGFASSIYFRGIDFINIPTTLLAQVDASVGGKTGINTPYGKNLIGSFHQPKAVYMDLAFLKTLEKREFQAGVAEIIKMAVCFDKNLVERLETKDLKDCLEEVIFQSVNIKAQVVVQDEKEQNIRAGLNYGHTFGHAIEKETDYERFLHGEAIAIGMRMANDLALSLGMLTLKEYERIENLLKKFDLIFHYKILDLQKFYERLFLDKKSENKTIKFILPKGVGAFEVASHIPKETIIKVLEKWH
Experimental: (§3) We performed ADP assay providing a direct method to analyze SDH-SK dual enzyme activity. The assay was initiated by addition of the 3-dehydroshikimate (2 mM) after incubating in a reaction mixture containing 2.5 mM ATP, 0.5 mM NADPH, 100 nM SDH, 100 nM SK enzyme, 50 mM KCl, 5 mM MgCl2 and different inhibitors. The reaction was carried out at 25°C in a mixture of 100 mM Tris-HCl buffer, pH 7.5 and terminated at 100°C for 5 mins in the reaction time of initial rate. The amount of ADP was measured by using ADP Colorimetric Assay Kit II (BioVision) according to the manufacturer's instruction. We also performed 3-dehydroquinate synthase inhibition assay. The reaction was comprised of 3-deoxy-D-arabinoheptulosonate 7-phosphate (1 mM) and NAD+ (0.5 mM). The amount of NADH was measured by using NAD+/NADH Quantification Kit (BioVision). All assays were conducted in a 96-well microplate and analyzed with a spectrophotometer (FLUOstar OPTIMA, BMG LABTECH). The dose-response curve was fitted using the non-linear regression function of GraphPad Prism. The IC90 values were computed from the IC50 and Hill slop.

[2] = target: T2, shikimate dehydrogenase (SDH) (Helicobacter pylori, UniProt P56119); test: Single enzyme inhibition assay, SDH activity (formation of NADPH, A340); type: biochemical; settings: for IC50: 1.6 mM shikimate, 2 mM NADP, 25°C, pH 8.0
T2 sequence (P56119 1-263): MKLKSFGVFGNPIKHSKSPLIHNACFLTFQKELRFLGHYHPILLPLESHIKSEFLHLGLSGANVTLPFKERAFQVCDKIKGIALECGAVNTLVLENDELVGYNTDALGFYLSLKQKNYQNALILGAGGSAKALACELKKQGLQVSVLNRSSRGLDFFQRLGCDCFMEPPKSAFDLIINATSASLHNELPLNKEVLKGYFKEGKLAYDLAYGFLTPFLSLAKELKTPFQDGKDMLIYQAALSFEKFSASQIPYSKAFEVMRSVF
Experimental: as §1, §2

dual enzyme (SDH and SK) = test: SDH-SK dual enzyme activity ADP assay; type: biochemical, Helicobacter pylori; settings: for dual enzyme dose-response curve compared with SDH and SK curves: 2 mM 3-dehydroshikimate, 100 nM SDH, 100 nM SK; for dual enzyme (SDH and SK) activity curve: at inhibitor concentrations greater than the IC90 value
Experimental: as §3

[3] = 100 nM enzyme, read-out: SK IC50
[4] = 100 nM enzyme, read-out: SDH IC50

Compound	dual enzyme dose-response curve compared with SDH and SK curves (dual enzyme (SDH and SK))	dual enzyme (SDH and SK) activity curve (dual enzyme (SDH and SK))	IC50 (shikimate kinase (SK); [3])	inhibition at 100 µM (shikimate kinase (SK))	IC50 [2, 4]	inhibition of 3-dehydroquinate synthase [1]	also measured
O=C(Nc1ccc2c(O)cc(S(=O)(=O)O)cc2c1)Nc1ccc2c(O)cc(S(=O)(=O)O)cc2c1 [NSC45174]	median effect	approximately 0					IC50 (shikimate kinase (SK); SK IC50, 100 nM enzyme): < 10 µM; IC50 [1]: 7.1 µM; IC50 ([2]; SDH IC50, 100 nM enzyme): 3.6 µM
Cc1ccc(S(=O)(=O)CCSc2n[nH]c(=O)n2-c2ccc(OCc3ccccc3)cc2)cc1 [HTS02873]			> 100 µM	< 50%	4.9 µM		inhibitory effect for SK (shikimate kinase (SK); at 100 µM): no inhibitory effect
O=C(Nc1ccc2ncccc2c1)Nc1ccc2ncccc2c1 [NSC71881]				< 50%			inhibition at 100 µM ([2]; at 100 μM, Table S4, read-out: SDH IC50 (μM), dash = inhibition percentage): < 50%
Cc1cc(/N=N/c2ccc(/N=N/c3ccc(/N=N/c4ccc(O)c(C(=O)O)c4)cc3)c(S(=O)(=O)O)c2C)c(N)cc1N [NSC45611]	median effect	approximately 0	4.8 µM		1.4 µM	no inhibitions	
O=C(NNC(=O)C1c2ccccc2Oc2ccccc21)c1cccc([N+](=O)[O-])c1 [RH00037]					24.8 µM	no inhibitions	
Nc1ccc2c(O)c(N=Nc3ccc4c(O)cc(S(=O)(=O)O)cc4c3)c(S(=O)(=O)O)cc2c1 [NSC162535, reference compound]	nearly identical profiles						
